By refractive index is commonly meant a measure of how strongly the sample bends light. For orientation: mass density means mass per unit of volume.

These results are taken from the NIST ThermoML archive (doi:10.1021/je700206y).

A short description of series [1]: refractive index (Na D-line) (dimensionless). The conditions noted are these: 293.2 K; 101.33 kPa; Liquid; Standard Abbe refractometry.
For series [2] the following is noted: Liquid; for mass density: 293.2 K, 101.33 kPa; for Normal boiling temperature: Distillation.
Series [3] can be described thus: Boiling temperature at pressure P. The note with it: 1.733 kPa; Liquid; Distillation.

The structures appear in SMILES notation. Numbers after ± are expanded uncertainties.

In the case of `COC(=O)CCCCC(=O)OC` [dimethyl 1,6-hexanedioate], in series [1], the refractive index is 1.42825 ± 0.0007. Besides, the mass density in series [2] was 1061.72 ± 0.56 kg/m3. Moreover, the “Boiling temperature at pressure P” value in series [3] turned out to be 115 ± 1 °C.

`COC(=O)CCC(=O)OC` [dimethyl 1,4-butanedioate]: in series [1], the refractive index is listed as 1.41969 ± 0.00078. In series [2], the mass density amounted to 1119.13 ± 1.6 kg/m3 and the Normal boiling temperature amounted to 196.1 ± 0.2 °C.

For `O=CO` [formic acid], in series [1], the refractive index amounted to 1.37144 ± 0.0007. In series [2], the mass density was found to be 1220.04 ± 1 kg/m3 and the Normal boiling temperature is 101.2 ± 0.2 °C.

On to `COC(=O)CCCC(=O)OC` [dimethyl pentanedioate], for which the refractive index in series [1] was found to be 1.42454 ± 0.0007. Besides, in series [2], the mass density is recorded as 1087.67 ± 0.63 kg/m3 and the Normal boiling temperature was 214.2 ± 0.2 °C.
